Reference: patent US20080070794A1, “Chemical sensors” (The Trustees of Princeton University, priority 2005, published 2008)
Positions count from the first letter of the chain named. “Also recorded” adds a separate entry of the source.

Columns and labels:
Assay type in all cases: cell-based
UDPG receptor mutant K-3 = biological target: T1, UDPG receptor mutant K-3 (Homo sapiens, UniProt Q15391, A193V/A252V/A98V/E278G/F243I/I251T/K54E/R253K); assay: β-galactosidase reporter assay in yeast, mutant K-3 receptor
T1 construct: The entire UDPG receptor gene was mutagenized via error-prone mutagenesis; expressed in transfected cells; host or cells: Saccharomyces cerevisiae CY10560 (growth) / CY10981 with Cp1021 FUS1-LacZ (β-galactosidase)
T1 sequence (Q15391 1-338 K54E/A98V/A193V/F243I/I251T/A252V/R253K/E278G): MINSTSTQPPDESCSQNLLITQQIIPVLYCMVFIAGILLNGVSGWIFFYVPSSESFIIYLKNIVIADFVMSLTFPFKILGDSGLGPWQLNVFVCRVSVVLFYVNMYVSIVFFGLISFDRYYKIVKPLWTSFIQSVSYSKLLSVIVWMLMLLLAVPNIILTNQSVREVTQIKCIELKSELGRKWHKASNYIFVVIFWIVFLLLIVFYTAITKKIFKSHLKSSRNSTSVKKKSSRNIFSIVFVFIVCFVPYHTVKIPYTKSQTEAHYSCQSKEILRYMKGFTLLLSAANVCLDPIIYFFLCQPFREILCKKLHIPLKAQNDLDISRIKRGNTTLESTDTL
Method: (§1) Strains and plasmids. Mutagenesis and selection were performed in yeast strain […] can1-100 […] […] […] ura3-52). β-Galactosidase assays were performed using yeast strain CY10981 (PFUS1-HIS3 can1-100 […] […] […] ura3-52) carrying plasmid Cp1021 (PFUS1-LacZ 2 μm URA3).

K-3 mutant = biological target: T2, K-3 mutant (Homo sapiens, UniProt Q15391, A193V/A252V/A98V/E278G/F243I/I251T/K54E/R253K); assay: Yeast growth assay, mutant K-3 receptor; details: relative to parent H-20
T2 construct: The entire UDPG receptor gene was mutagenized via error-prone mutagenesis; expressed in transfected cells; host or cells: Saccharomyces cerevisiae CY10560 (growth) / CY10981 with Cp1021 FUS1-LacZ (β-galactosidase)
T2 sequence (Q15391 1-338 K54E/A98V/A193V/F243I/I251T/A252V/R253K/E278G): T1 sequence (Q15391 1-338 K54E/A98V/A193V/F243I/I251T/A252V/R253K/E278G)
Excerpt: Targeted mutagenesis and selection of functional receptor mutants. To generate targeted mutants, oligonucleotides with randomized sequences, corresponding to the codons to be mutagenized, were utilized to generate overlapping PCR products. The method and many applicable variations thereof are known in the art.
The HTVK mutant, designated H-20, was selected as the template for mutagenesis of three additional motifs, ‘AxxFY’ and ‘NMY’ in TM3, and ‘KExT’ in TM7.

[1] = biological target: T3, UDPG receptor mutant H-20 (Homo sapiens, UniProt Q15391, A193V/A252V/A98V/F243I/I251T/K54E/R253K); assay: β-galactosidase reporter assay in yeast, mutant H-20 receptor
T3 construct: The entire UDPG receptor gene was mutagenized via error-prone mutagenesis; expressed in transfected cells; host or cells: Saccharomyces cerevisiae CY10560 (growth) / CY10981 with Cp1021 FUS1-LacZ (β-galactosidase)
T3 sequence (Q15391 1-338 K54E/A98V/A193V/F243I/I251T/A252V/R253K): T1 sequence (Q15391 1-338 K54E/A98V/A193V/F243I/I251T/A252V/R253K/E278G) with G278E
Method: as §1

[2] = biological target: T4, UDP-glucose receptor 2211 (Homo sapiens, UniProt Q15391, A193V/A252V/A98V/F243I/K54E); assay: β-galactosidase reporter assay in yeast, mutant 2211 receptor
T4 construct: The entire UDPG receptor gene was mutagenized via error-prone mutagenesis; expressed in transfected cells; host or cells: Saccharomyces cerevisiae CY10560 (growth) / CY10981 with Cp1021 FUS1-LacZ (β-galactosidase)
T4 sequence (Q15391 1-338 K54E/A98V/A193V/F243I/A252V): T1 sequence (Q15391 1-338 K54E/A98V/A193V/F243I/I251T/A252V/R253K/E278G) with T251I, K253R, G278E
Method: as §1

[3] = biological target: T5, wild type UDPG receptor (P2Y14) (Homo sapiens, UniProt Q15391); assay: β-galactosidase reporter assay in yeast, wild type receptor
T5 construct: The entire UDPG receptor gene was mutagenized via error-prone mutagenesis; expressed in transfected cells; host or cells: Saccharomyces cerevisiae CY10560 (growth) / CY10981 with Cp1021 FUS1-LacZ (β-galactosidase)
T5 sequence (Q15391 1-338): T1 sequence (Q15391 1-338 K54E/A98V/A193V/F243I/I251T/A252V/R253K/E278G) with E54K, V98A, V193A, I243F, T251I, V252A, K253R, G278E

## O=c1ccn([C@@H]2O[C@H](COP(=O)(O)OP(=O)(O)O)[C@@H](O)[C@H]2O)c(=O)[nH]1 [UDP, uridine diphosphate]
UDPG receptor mutant K-3
  agonist/antagonist character at K-3 receptor: at least a partial agonist; also recorded: increasingly strong partial agonist
K-3 mutant
  growth in response to ligand: grew in the presence
[1]
  agonist/antagonist character at H-20 receptor: increasingly strong partial agonist
[2]
  agonist/antagonist character at 2211 receptor: weakly activated; also recorded: competitive inhibitor; also recorded: primarily as an antagonist
[2]; UDP antagonism of UDP-glucose agonist activity, FIG. 2 Panel B
  Slope of the linear fit, Schild regression: ~0.8
[3]
  agonist/antagonist character at wild type receptor: primarily as an antagonist
